{"source": "patent US5776946A", "about": "“Peripheral benzodiazepine receptor ligands as antiinflammatory agents” (priority 1995, dated 1998)", "key": {"[1]": {"biological_target": "T1, peripheral benzodiazepine receptors in brain (Homo sapiens, UniProt P30536)", "T1 construct": "host or cells: brain (Doble et al., 1987)", "T1 sequence (P30536 whole entry)": "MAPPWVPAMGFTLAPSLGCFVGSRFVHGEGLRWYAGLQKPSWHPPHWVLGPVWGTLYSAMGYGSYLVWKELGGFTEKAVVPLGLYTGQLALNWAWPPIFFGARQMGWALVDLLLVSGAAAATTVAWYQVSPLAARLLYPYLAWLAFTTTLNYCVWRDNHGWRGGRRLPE", "conditions": "read-out: ability to displace bound PK 11195 from peripheral benzodiazepine receptors (Ki); cited from earlier work"}, "[2]": {"test_system": "cultured rat peritoneal macrophages", "assay": "Respiratory burst in cultured rat peritoneal macrophages activated by opsonized zymosan", "format": "cell-based", "conditions": "Peritoneal macrophage; for activity at 1000 µM: 10^-3 M", "source_text": "Its main function is to protect the body from hostile invaders by generating superoxide radicals, but inappropriate activation can damage host tissue. Oxidative stress is believed to be one of the more harmful concomitants of inflammation. The respiratory burst system can be activated in cultured peritoneal macrophages in multiple ways, including exposure to zymosan particles opsonized by complement proteins (Klegeris and McGeer, 1994).\nFor methods see Klegeris and McGeer, 1994."}, "[3]": {"biological_target": "T2, peripheral benzodiazepine receptors, human Alzheimer and control cortical tissue (Homo sapiens, UniProt P30536)", "T2 construct": "from tissue; host or cells: human cortical brain tissue, Alzheimer and neurologically normal control", "T2 sequence (P30536 whole entry)": "as above", "assay": "Specific high affinity binding of PK 11195 to Alzheimer and control cortical tissue", "conditions": "PK 11195 at 3 nM", "source_text": "The standard method of Schoemaker et al., 1983 was employed."}, "MRL-lpr mice": {"test_system": "MRL-lpr mice", "assay": "CFA-induced disease in MRL-lpr mice, joint histopathology", "format": "in vivo, mouse", "conditions": "for Severity of Disease Sign Total / Severity of Disease Sign (1) subsynovial inflammation / Severity of Disease Sign (2) synovial hyperplasia / Severity of Disease Sign (3) pannus formation / Severity of Disease Sign (4) bone destruction: day 30, mean ± S.D.; for Severity of Disease Sign (1) subsynovial inflammation / Severity of Disease Sign (2) synovial hyperplasia / Severity of Disease Sign (3) pannus formation / Severity of Disease Sign (4) bone destruction: scale 0-4", "source_text": "MRL-lpr mice are a widely studied strain which spontaneously develop a particularly severe autoimmune disorder. Pathologies that are found in a variety of human idiopathic inflammatory and autoimmune diseases are reproduced in these animals. They are therefore considered to be an outstanding model for such individual human diseases, although the pathology represents a combination of several of them. They are regarded as the best animal model for rheumatoid arthritis (Koopman and Gay, 1988) , systemic lupus erythematous (Bartlett et al., 1988)., and Sjogren's syndrome (Hayashi et al., 1994). […] They develop behavioral and neurological deficits (Sakic et al., 1993), as well as evidence of CNS inflammation (Vogelweid et al., 1991) which is seen in isolation in such diseases as Alzheimer type dementia and multiple sclerosis, but is also part of the syndrome in systemic lupus erythematosus and Sjogren's syndrome. The model is considered to be a particularly demanding one for screening antiinflammatory agents because of the severity and comprehensiveness of the disease pathology. […] The lesions include synovial inflammation, synovial cell proliferation, pannus formation, and articular cartilage erosion and bone destruction. Only powerful antiinflammatory agents will inhibit the devastating changes that accompany this genetic disorder. Mice of the MRL-lpr strain spontaneously develop a mild form of the disease at several months of age. The onset can be accelerated by injection of complete Freund's adjuvant (CFA) supplemented to 10 mg/ml with heat-inactivated M. tuberculosis, at 13-14 weeks of age, with 67-82% of animals becoming affected within 1 month (Ratkay et al., 1994; Ratkay et al., 1993).\nDaily injections were continued until day 14. The animals were sacrificed at day 30 and joint histopathology assessed. […] The results were compared with those in littermates receiving CFA only (N=7). Following sacrifice, animals were evaluated for subsynovial inflammation, synovial hyperplasia, cartilage destruction and pannus formation, and bone destruction.\n^A The histopathological changes were assessed on a scale of 0 (no\nchange) to 4 (severe change) for the following indices: (1) subsynovial\ninflammation; (2) synovial hyperplasia; (3) pannus formation; and (4) bon\ndestruction. For methods see Ratkay et al., 1994."}, "[4]": {"biological_target": "T3, peripheral benzodiazepine receptors, mouse peritoneal macrophages (Mus musculus, UniProt P50637)", "T3 construct": "host or cells: mouse peritoneal macrophages (Zavala and Lenfant, 1987b)", "T3 sequence (P50637 whole entry)": "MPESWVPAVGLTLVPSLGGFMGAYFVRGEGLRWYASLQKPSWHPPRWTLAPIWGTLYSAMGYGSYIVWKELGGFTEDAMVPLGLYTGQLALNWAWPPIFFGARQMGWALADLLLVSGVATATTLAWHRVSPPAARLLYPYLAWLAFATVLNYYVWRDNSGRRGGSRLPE", "conditions": "read-out: affinity; cited from earlier work"}, "[5]": {"biological_target": "T2, peripheral benzodiazepine receptors, human Alzheimer and control cortical tissue", "conditions": "McGeer et al., 1988; cited from earlier work"}, "[6]": {"conditions": "read-out: Respiratory burst, Percent of Control (± S.E.), substance given After OZ"}, "[7]": {"conditions": "read-out: Respiratory burst, Percent of Control (± S.E.), substance given Before OZ"}, "[8]": {"conditions": "after opsonized zymosan, read-out: Respiratory burst, Percent of Control (± S.E.), substance given After OZ"}, "[9]": {"conditions": "before opsonized zymosan, read-out: Respiratory burst, Percent of Control (± S.E.), substance given Before OZ"}, "[10]": {"conditions": "10^-4 M, after opsonized zymosan, read-out: Respiratory burst, Percent of Control (± S.E.), substance given After OZ"}, "[11]": {"conditions": "10^-4 M, before opsonized zymosan, read-out: Respiratory burst, Percent of Control (± S.E.), substance given Before OZ"}, "[12]": {"conditions": "10^-5 M, before opsonized zymosan, read-out: Respiratory burst, Percent of Control (± S.E.), substance given Before OZ"}}, "note": "“And” between values parts separate entries of the source, which are not always exact repeats. Identical values can stand only once. Like-named read-outs stand apart in the source and are kept apart here."}
{"smiles": "CCN(CC)C(=O)C(C)Cc1cc(-c2ccccc2)nc2ccccc12", "note": "(single isomer, unassigned) [PK-14067, 1-N,N-diethyl-a-methyl-2-phenylquinoline-4-propranamide]", "values": [{"measurement": "Ki", "setting": "[1]", "value": 44, "unit": "nM"}]}
{"smiles": "CCC(C)N(C)C(=O)c1cc2ccccc2c(-c2ccccc2Cl)n1", "note": "(stereo not drawn) [PK 11195, 1-(2-chlorophenyl)-N-methyl-N-(1-methylpropyl)-3-isoquinolinecarboxamide]", "values": [{"measurement": "activity at 1 µM", "setting": "[2]; [6]", "value": "97.9 ± 0.2", "unit": "%"}, {"measurement": "activity at 10 µM", "setting": "[2]; [6]", "value": "83.5 ± 8.7", "unit": "%"}, {"measurement": "activity at 100 µM", "setting": "[2]; [6]", "value": "47.1 ± 13.6", "unit": "%"}, {"measurement": "activity at 1 µM", "setting": "[2]; [7]", "value": "99 ± 5.6", "unit": "%"}, {"measurement": "activity at 10 µM", "setting": "[2]; [7]", "value": "87.9 ± 5.5", "unit": "%"}, {"measurement": "activity at 100 µM", "setting": "[2]; [7]", "value": "48.9 ± 10.8", "unit": "%"}, {"measurement": "inhibition at 100 µM", "setting": "[2]; read-out: inhibition of respiratory burst", "value": "> 50", "unit": "%"}, {"measurement": "Specific High Affinity Binding, Alzheimer cortical tissue, Means ± S.E.", "setting": "[3]; Alzheimer", "value": "449 ± 25", "unit": "fentamoles/mg protein"}, {"measurement": "Specific High Affinity Binding, Alzheimer cortical tissue, individual cases", "setting": "[3]; Alzheimer", "value": "480 fentamoles/mg protein and 585 fentamoles/mg protein and 400 fentamoles/mg protein and 450 fentamoles/mg protein and 395 fentamoles/mg protein and 408 fentamoles/mg protein and 422 fentamoles/mg protein"}, {"measurement": "Specific High Affinity Binding, Control cortical tissue, Means ± S.E.", "setting": "[3]; Control", "value": "165 ± 25", "unit": "fentamoles/mg protein"}, {"measurement": "Specific High Affinity Binding, Control cortical tissue, individual cases", "setting": "[3]; Control", "value": "201 fentamoles/mg protein and 94 fentamoles/mg protein and 265 fentamoles/mg protein and 118 fentamoles/mg protein and 141 fentamoles/mg protein and 111 fentamoles/mg protein and 222 fentamoles/mg protein"}, {"measurement": "Severity of Disease Sign Total", "setting": "MRL-lpr mice; 0.1 mg/kg s.c. daily to day 14", "value": "1.40 ± 0.48"}, {"measurement": "Severity of Disease Sign (1) subsynovial inflammation", "setting": "MRL-lpr mice; 0.1 mg/kg s.c. daily to day 14", "value": "0.70 ± 0.26"}, {"measurement": "Severity of Disease Sign (2) synovial hyperplasia", "setting": "MRL-lpr mice; 0.1 mg/kg s.c. daily to day 14", "value": "0.70 ± 0.26"}, {"measurement": "Severity of Disease Sign (3) pannus formation", "setting": "MRL-lpr mice; 0.1 mg/kg s.c. daily to day 14", "value": "0.00 ± 0.00"}, {"measurement": "Severity of Disease Sign (4) bone destruction", "setting": "MRL-lpr mice; 0.1 mg/kg s.c. daily to day 14", "value": "0.00 ± 0.00"}, {"measurement": "Severity of Disease Sign Total", "setting": "MRL-lpr mice; 0.5 mg/kg s.c. daily to day 14", "value": "1.25 ± 0.53"}, {"measurement": "Severity of Disease Sign (1) subsynovial inflammation", "setting": "MRL-lpr mice; 0.5 mg/kg s.c. daily to day 14", "value": "0.62 ± 0.26"}, {"measurement": "Severity of Disease Sign (2) synovial hyperplasia", "setting": "MRL-lpr mice; 0.5 mg/kg s.c. daily to day 14", "value": "0.50 ± 0.27"}, {"measurement": "Severity of Disease Sign (3) pannus formation", "setting": "MRL-lpr mice; 0.5 mg/kg s.c. daily to day 14", "value": "0.00 ± 0.00"}, {"measurement": "Severity of Disease Sign (4) bone destruction", "setting": "MRL-lpr mice; 0.5 mg/kg s.c. daily to day 14", "value": "0.12 ± 0.12"}, {"measurement": "Severity of Disease Sign Total", "setting": "MRL-lpr mice; 1 mg/kg s.c. daily to day 14", "value": "1.14 ± 0.14"}, {"measurement": "Severity of Disease Sign (1) subsynovial inflammation", "setting": "MRL-lpr mice; 1 mg/kg s.c. daily to day 14", "value": "0.43 ± 0.20"}, {"measurement": "Severity of Disease Sign (2) synovial hyperplasia", "setting": "MRL-lpr mice; 1 mg/kg s.c. daily to day 14", "value": "0.71 ± 0.18"}, {"measurement": "Severity of Disease Sign (3) pannus formation", "setting": "MRL-lpr mice; 1 mg/kg s.c. daily to day 14", "value": "0.00 ± 0.00"}, {"measurement": "Severity of Disease Sign (4) bone destruction", "setting": "MRL-lpr mice; 1 mg/kg s.c. daily to day 14", "value": "0.00 ± 0.00"}, {"measurement": "reduction of the total histopathological score observed in control mice", "setting": "MRL-lpr mice; even at the lowest dose of 0.1 mg/kg", "value": "more than 70%"}, {"measurement": "efficacy compared with results of Ratkay et al., 1994", "setting": "MRL-lpr mice; lowest dose 0.1 mg/kg", "value": "more effective than ten times that dose of indomethacin, forty times that dose of cyclosporin"}, {"measurement": "Kd", "setting": "[4]", "value": 5.6, "unit": "nM"}]}
{"smiles": "C[C@]12C=CC(=O)C=C1CC[C@@H]1[C@@H]2C(=O)C[C@@]2(C)[C@H]1CC[C@]2(O)C(=O)CO", "note": "[Prednisone, prednisone]", "values": [{"measurement": "activity at 1000 µM", "setting": "[2]; [8]", "value": "67 ± 11.6", "unit": "%"}, {"measurement": "activity at 1000 µM", "setting": "[2]; [9]", "value": "62.5 ± 8.1", "unit": "%"}, {"measurement": "activity at 100 µM", "setting": "[2]; [10]", "value": "102 ± 4.9", "unit": "%"}, {"measurement": "activity at 100 µM", "setting": "[2]; [11]", "value": "88.8 ± 7.2", "unit": "%"}]}
{"smiles": "COc1ccc2c(c1)c(CC(=O)O)c(C)n2C(=O)c1ccc(Cl)cc1", "note": "[Indomethacin, indomethacin]", "values": [{"measurement": "activity at 1000 µM", "setting": "[2]; [8]", "value": "64.8 ± 9.4", "unit": "%"}, {"measurement": "activity at 1000 µM", "setting": "[2]; [9]", "value": "36 ± 12.5", "unit": "%"}, {"measurement": "activity at 100 µM", "setting": "[2]; [10]", "value": "101 ± 2.1", "unit": "%"}, {"measurement": "activity at 100 µM", "setting": "[2]; [11]", "value": "86.3 ± 10.9", "unit": "%"}, {"measurement": "activity at 10 µM", "setting": "[2]; [12]", "value": "101 ± 3.5", "unit": "%"}]}
{"smiles": "Nc1ccc(S(=O)(=O)c2ccc(N)cc2)cc1", "note": "[Dapsone, dapsone]", "values": [{"measurement": "activity at 100 µM", "setting": "[2]; [10]", "value": "90.3 ± 6.2", "unit": "%"}, {"measurement": "activity at 100 µM", "setting": "[2]; [11]", "value": "73.6 ± 4.6", "unit": "%"}, {"measurement": "activity at 10 µM", "setting": "[2]; 10^-5 M, after opsonized zymosan, read-out: Respiratory burst, Percent of Control (± S.E.), substance given After OZ", "value": "96.4 ± 1.6", "unit": "%"}, {"measurement": "activity at 10 µM", "setting": "[2]; [12]", "value": "94.7 ± 1.3", "unit": "%"}]}
{"smiles": "CN1C(=O)CN=C(c2ccc(Cl)cc2)c2cc(Cl)ccc21", "note": "[Ro 5-4864, 4'-chlorodiazepam]", "values": [{"measurement": "Ki", "setting": "[1]", "value": 178, "unit": "nM"}, {"measurement": "activity at 1 µM", "setting": "[2]; [7]", "value": "94.6 ± 12.2", "unit": "%"}, {"measurement": "activity at 10 µM", "setting": "[2]; [7]", "value": "85.4 ± 2.5", "unit": "%"}, {"measurement": "activity at 100 µM", "setting": "[2]; [7]", "value": "74.7 ± 1.9", "unit": "%"}, {"measurement": "high affinity binding to Alzheimer versus neurologically normal brain tissue", "setting": "[5]", "value": "greater high affinity binding to Alzheimer brain tissue than to neurologically normal brain tissue"}]}
